Experimental data as given in patent publication US9723989B2, “Ex vivo motility contrast imaging” (Purdue Research Foundation, priority 2015, dated 2017).

Tested on: DLD-1 tumor spheroid
Test: Biodynamic imaging / tissue dynamics spectroscopy, combined (Het, Div) metric of drug response
Assay type: cell-based
Details: per-pixel TDS drug-response spectrograms, FIG. 14, FIG. 15
From the text: There are two light paths in the optical coherence imaging system. The laser source provides light which is intensity-controlled by the neutral density filter and size-controlled by lenses L1 and L2. Light is communicated through a half-wave plate, and is then communicated through a polarizing beam splitter (PBS1) which generates an object path and a reference path. Lenses L3 and L4 expand the reference beam, and lens L5 performs the Fourier transform of the back-scattered dynamic speckle from a target. The wave plates (half-wave plate and quarter-wave plate) and the PBS2 ensure most of the laser power is in the object beam, and most of the back-scattered signal reaches the charge coupled device (CCD). The target is often a multicellular tumor spheroid, but can be any living biological specimen that is sufficiently immobilized, such as living tissue obtained by surgical biopsy or by needle biopsy. In TDS experiments, the images are captured at a fixed-depth (usually the mid-plane of the tumor tissue). For example, if the tumor spheroid has a diameter of 500 microns, the images captured by the CCD camera are the Fourier Domain back-scattered dynamic speckle holograms at the fixed depth of 250 microns in the tumor spheroid. Conversely, sections from multiple depths can be acquired to obtain stacks of images that are reconstructed into three-dimensional optical coherence volumetric images. In each 4 min interval, 2 acquisition rates are applied. First 200 images are captured at 25 fps; then another 100 images are captured at 0.5 fps. Thus after combining the high frequency data and the low frequency data together, in each 4 min interval (each data set), the spectrum frequency range is from 0.005 Hz to 12.5 Hz across more than 3 orders of magnitude.
The high-frequency acquisition generates a series of image frames in which the speckle varies in intensity from frame to frame. These intensities are analyzed using a Fourier transform to generate a high-frequency spectrum. The low-frequency acquisition similarly generates a low-frequency spectrum. These high- and low-frequency spectra overlap over a frequency range. A stitching algorithm is performed that combined the high- and low-frequency spectra into a single broad-band spectrum. This spectrum relates to the 300 images and constitutes one time-point spectrum. The process is repeated to generate a series of time-point spectra.
The outcome of the heterogeneity sampling can be encapsulated in a small number of metrics that are communicated to the operator. […]
An example of spatial non-uniformity is shown in FIG. 14 for the Raf inhibitor drug Sorafenib applied to a DLD-1 tumor spheroid. […] These spectrograms were analyzed for intensity and for spectral content. […]

Row | SMILES | Heterogeneity (Het) - how spatially uniform is the response | Diversity (Div) - phenotypic diversity, difference in spectrogram features / spectral content
1 | CNC(=O)c1cc(Oc2ccc(NC(=O)Nc3ccc(Cl)c(C(F)(F)F)c3)cc2)ccn1 [Sorafenib] | 0.83 | 
2 | CC(=O)O[C@H]1C(=O)[C@@]2(C)[C@H]([C@H](OC(=O)c3ccccc3)[C@]3(O)C[C@H](OC(=O)[C@H](O)[C@@H](NC(=O)c4ccccc4)c4ccccc4)C(C)=C1C3(C)C)[C@]1(OC(C)=O)CO[C@@H]1C[C@@H]2O [taxol] | high spatial heterogeneity | spectral content appears the same for core and shell
3 | CC(C)[C@@H]1NC(=O)[C@H](C)OC(=O)[C@@H](C(C)C)NC(=O)[C@@H](C(C)C)OC(=O)[C@H](C(C)C)NC(=O)[C@H](C)OC(=O)[C@@H](C(C)C)NC(=O)[C@@H](C(C)C)OC(=O)[C@H](C(C)C)NC(=O)[C@H](C)OC(=O)[C@@H](C(C)C)NC(=O)[C@@H](C(C)C)OC1=O [valinomycin] | One of the most uniform | 
